The values below come from patent US20130072553A1, “DRUGS, DERIVATIVES AND ANALOGS CONTAINING ADAMANTANE STRUCTURES OF NEW INDICATION APPLICATIONS OF ANTI-TUMOR” (priority 2009, published 2013).

In general, IC50 refers to the concentration needed to halve the response being measured.

Data set [1] relates to Human pancreatic cancer cell line Panc-1. Briefly: In vitro anti-cancer cell experiment (MTT), pancreatic cancer Panc-1. The format is cell-based. How it is done: (§1) Cell lines: Human pancreatic cancer cell line Panc-1, human colorectal cancer cell line HT29, human lung cancer cell line NCI-H460 and human breast cancer cell line MCF7; the medium: s DMEM (Gibco BRL), containing 10% fetal calf serum (Gibco BRL) and 2 mM L-glutamine (Gibco BRL).
(§2) The samples were dissolved in dimethyl sulfoxide (DMSO, Sigma, United States) and medium was added to the final concentration of 0.5%. cyclophosphamide was as positive control (CTX, purity>96%).
(§3) Method: cells were digested with trypsin and dispersed into single cells in the medium containing penicillin (25 U/ml) and streptomycin (25 μg/ml). The cells were seeded in 96-well culture plates (Corning Incorporated), at 37° C., with 5% CO2 present for 24 hours. The culture medium was removed, 1-100 μm test compounds were added, cultured for 48 hours. Culture medium was removed and […] (MTT, USA Sigma products) was added. The result was assayed by SK601-based microplate reader (Japan Seikagaku company's products), 570 nm/630 nm optical density (OD). Cell viability determined by the formula: (Experimental group OD/control OD)×100%; CDDP and the positive control subjects treated in the same material simultaneously.

Data set [2] relates to human lung cancer cell line NCI-H460. Briefly: In vitro anti-cancer cell experiment (MTT), lung cancer NCI-H460. The format is cell-based. As to the method:
as §1, §2, §3

Data set [3] in a line: Body weight of S180 tumor-bearing mice. How it is done:
(§4) Xenografts cultured S180 tumor cells were implanted subcutaneously into the flank region of mice and tumors were allowed to grow to the desired average size of 100 mg. The mice were randomized into control and treatment groups with 10 mice per group. The control group was injected with the vehicle used to dissolve the drug. […] Injections were I.V. via the tailvein.
(§5) The test group inoculated tumor cells […] in mice armpit, administration and observation of seven days.

The subject of data set [4] is human colorectal cancer cell line HT29. Briefly: In vitro anti-cancer cell experiment (MTT), colorectal cancer HT29. It is filed as cell-based. As to the method:
as §1, §2, §3

For data set [5], the system named is human breast cancer cell line MCF7. Briefly: In vitro anti-cancer cell experiment (MTT), breast cancer MCF7. The format is cell-based. How it is done: as §1, §2, §3
The next data set has as its system mice sarcoma S180. Put plainly: Inhibition of the sarcoma growth S180 in mice. It is filed as in vivo. The following applies: for anti-tumor efficacy in vivo: iv; for inhibition compared with positive control cyclophosphamide / inhibition rate compared with positive control 5-FU: by tumor weight, seven days. As to the method: Tumor strains: mice sarcoma S180 for ascites passaged from Beijing Academy of Military Medical Institute of Pharmacology.
as §4, §5

Where [6] appears, read: MCF7, 48 h, read-out: IC50 with 95% confidence limits, inhibitory effect on breast cancer MCF7 cells.
Setting [7] is: Panc-1 cells, 48 hours, MTT, read-out: IC50 Pancreatic cancer Panc-1.
Where [8] appears, read: Panc-1 cells, 48 hours, MTT, value (95% confidence limits), read-out: IC50 and 95% confidence limits, anti-proliferative effect on Panc-1.
[9] abbreviates: NCI-H460 cells, 48 hours, MTT, read-out: IC50 Lung cancer NCI-H460.
Where [10] appears, read: NCI-H460 cells, 48 hours, MTT, value (95% confidence limits), unit given only for CTX, read-out: IC50 and 95% confidence limits, inhibitory effect on lung cancer NCI-H460 cells.
Setting [11] is: HT-29, HT29 cells, 48 hours, MTT, value (95% confidence limits), read-out: IC50 and 95% confidence limit, anti-proliferative effect on HT29.
Where [12] appears, read: HT-29 cells, 48 hours, MTT, read-out: IC50 Colorectal cancer HT-29.
Setting [13] is: MCF7 cells, 48 hours, MTT, read-out: IC50 Breast cancer MCF7.
[14] abbreviates: MCF7 cells, 48 hours, MTT, value (95% confidence limits), unit given only for CTX, read-out: IC50 with 95% confidence limits, inhibitory effect on breast cancer MCF7 cells.

Like-named read-outs stand apart in the source and are kept apart here.

For the compound `O=P1(N(CCCl)CCCl)NCCCO1` (centres unmarked) [CTX, cyclophosphamide], the IC50 in data set [1] (PANC-1, 48 h, read-out: IC50 Pancreatic cancer Panc-1) came to 2.23 µM; in data set [1] (PANC-1, 48 h, read-out: IC50 and 95% confidence limits, anti-proliferative effect on Panc-1) it was 2.23 µg/mL; in data set [2] (NCI-H460, 48 h, read-out: IC50 Lung cancer NCI-H460) it was 4.3 µM; in data set [2] (NCI-H460, 48 h, read-out: IC50 and 95% confidence limits, inhibitory effect on lung cancer NCI-H460 cells) it was 4.3 µg/mL; in data set [4] (HT-29, 48 h, read-out: IC50 Colorectal cancer HT-29) it was 2.26 µM; in data set [4] (HT-29, 48 h, read-out: IC50 and 95% confidence limit, anti-proliferative effect on HT29), 2.26 µg/mL. The IC50 in data set [5] (MCF7, 48 h, read-out: IC50 Breast cancer MCF7) worked out at 0.92 µM; in data set [5] (setting [6]), 0.92 µg/mL. Moreover, the “body Weight/g After ad.” value in data set [3] (after administration, iv, seven days, X ± SD) is recorded as 28.22 ± 2.46 g. Also, in data set [3] (before administration (baseline), iv groups, X ± SD), the “body Weight/g Before ad.” value is recorded as 22.45 ± 0.79 g.

Regarding `NC12CC3CC(CC(C3)C1)C2` [Compound 1, Amantadine], the IC50 in data set [1] (setting [7]) was determined as 51.3 µM; in data set [1] (setting [8]), 51.3 µg/mL; in data set [2] (setting [9]), 5.18 µM; in data set [2] (setting [10]) it was 5.18 µg/mL; in data set [4] (setting [11]), 18.8 µg/mL; in data set [4] (setting [12]) it was 18.8 µM. Besides, the values for the 50% inhibitory concentration (IC50) in data set [5] (setting [6]) and in data set [5] (setting [13]) were 6.18 µg/mL and 6.18 µM, respectively. In the data set with mice sarcoma S180, the “anti-tumor efficacy in vivo” value is given as “statistically significant”. Moreover, in data set [3] (mouse, in vivo, iv), the “body Weight/g After ad.” value is listed as 27.93 ± 3.37 g. The “body Weight/g Before ad.” value in data set [3] (mouse, in vivo, iv) was found to be 21.41 ± 2.52 g.

With `CC(N)C12CC3CC(CC(C3)C1)C2` (centres unmarked) [Compound 2, Rimantadine], the 50% inhibitory concentration (IC50) amounted to 2.42 µM in data set [1] (setting [7]); 2.42 µg/mL in data set [1] (setting [8]); 22 µM in data set [2] (setting [9]); 22 µg/mL in data set [2] (setting [10]); 3.92 µg/mL in data set [4] (setting [11]); 3.92 µM in data set [4] (setting [12]). Moreover, the results for the 50% inhibitory concentration (IC50) in data set [5] (setting [13]) and in data set [5] (setting [14]) were 2.73 µM and 2.73 µg/mL, respectively. In the data set with mice sarcoma S180, the “inhibition compared with positive control cyclophosphamide” value was “significantly better than the positive control group of cyclophosphamide”. In the data set with mice sarcoma S180, the “inhibition rate compared with positive control 5-FU” value is recorded as “better than the positive control group, 5-FU”. Also, the “anti-tumor efficacy in vivo” value in the data set on mice sarcoma S180 was “statistically significant”. Also, the “body Weight/g After ad.” value in data set [3] (mouse, in vivo, iv) is 26.02 ± 3.69 g. Further, in data set [3] (mouse, in vivo, iv), the “body Weight/g Before ad.” value was determined as 19.35 ± 0.95 g.

As for `CC12CC3CC(C)(C1)CC(N)(C3)C2` [Compound 3, Memantine], the half-maximal inhibitory concentration (IC50) was 53 µM in data set [1] (setting [7]); 53 µg/mL in data set [1] (setting [8]); 60.5 µM in data set [2] (setting [9]); 60.5 µg/mL in data set [2] (setting [10]); 13.1 µg/mL in data set [4] (setting [11]); 13.1 µM in data set [4] (setting [12]). Also, the 50% inhibitory concentration (IC50) in data set [5] (setting [13]) turned out to be 34.3 µM; in data set [5] (setting [14]) it was 34.3 µg/mL. In the data set on mice sarcoma S180, the “inhibition compared with positive control cyclophosphamide” value is given as “significantly better than the positive control group of cyclophosphamide”. In the data set on mice sarcoma S180, the “inhibition rate compared with positive control 5-FU” value was “better than the positive control group, 5-FU”. In addition, in the data set with mice sarcoma S180, the “anti-tumor efficacy in vivo” value is listed as “statistically significant”. Also, in data set [3] (mouse, in vivo, iv), the “body Weight/g After ad.” value stood at 28.98 ± 1.74 g. Further, the “body Weight/g Before ad.” value in data set [3] (mouse, in vivo, iv) was found to be 21.31 ± 1.53 g.

In the case of `CN(C)CCOCC(=O)NC12CC3CC(CC(C3)C1)C2` [Compound 4, Tromantadine], the 50% inhibitory concentration (IC50) in data set [1] (setting [7]) came out at 10 µM; in data set [1] (setting [8]) it was 10 µg/mL; in data set [2] (setting [9]), 8.52 µM; in data set [2] (setting [10]), 8.52 µg/mL; in data set [4] (setting [11]), 10.2 µg/mL; in data set [4] (setting [12]), 10.2 µM. In addition, the IC50 turned out to be 67.5 µM in data set [5] (setting [13]) and 67.5 µg/mL in data set [5] (setting [14]). In addition, the “inhibition rate compared with positive control 5-FU” value in the data set with mice sarcoma S180 is “better than the positive control group, 5-FU”. The “anti-tumor efficacy in vivo” value with mice sarcoma S180 is on record as “statistically significant”. Besides, in data set [3] (mouse, in vivo, iv), the “body Weight/g After ad.” value stood at 28.64 ± 4.13 g. In addition, the “body Weight/g Before ad.” value in data set [3] (mouse, in vivo, iv) is recorded as 21.03 ± 0.29 g.

As to `COc1ccc(-c2ccc3cc(C(=O)O)ccc3c2)cc1C12CC3CC(CC(C3)C1)C2` [Compound 5, Adapalene], the 50% inhibitory concentration (IC50) in data set [1] (setting [7]) worked out at 2.17 µM; in data set [1] (setting [8]) it was 2.17 µg/mL; in data set [2] (setting [9]) it was 2.81 µM; in data set [2] (setting [10]), 2.81 µg/mL; in data set [4] (setting [11]), 0.85 µg/mL; in data set [4] (setting [12]) it was 0.85 µM. For the same compound, in the data set with mice sarcoma S180, the “inhibition compared with positive control cyclophosphamide” value is “significantly better than the positive control group of cyclophosphamide”. The “inhibition rate compared with positive control 5-FU” value in the data set with mice sarcoma S180 is recorded as “better than the positive control group, 5-FU”. Besides, the “anti-tumor efficacy in vivo” value in the data set on mice sarcoma S180 is recorded as “statistically significant”. Further, the “body Weight/g After ad.” value in data set [3] (mouse, in vivo, iv) came out at 20.80 ± 3.61 g. Moreover, the “body Weight/g Before ad.” value in data set [3] (mouse, in vivo, iv) is 20.27 ± 1.80 g.

For the compound `O=c1[nH]cc(F)c(=O)[nH]1` [Compound 5-FU, 5-fluorouracil], in data set [3] (mouse, in vivo, iv), the “body Weight/g After ad.” value is on record as 29.16 ± 2.50 g and the “body Weight/g Before ad.” value is reported as 21.61 ± 1.56 g.

`O=C1C2CC3CC1CC(O)(C3)C2` [Compound 6, Idramantone]: in data set [1] (setting [7]), the concentration for half-maximal inhibition (IC50) came out at 53.5 µM. For the same compound, the IC50 in data set [1] (setting [8]) is 53.5 µg/mL. Moreover, the “anti-tumor efficacy in vivo” value in the data set on mice sarcoma S180 is “statistically significant”. In data set [3] (mouse, in vivo, iv), the “body Weight/g After ad.” value is given as 26.30 ± 3.62 g and the “body Weight/g Before ad.” value turned out to be 19.92 ± 1.47 g.
